Data published in PMC6036117, “Structural Insight Into Conformational Changes Induced by ATP Binding in a Type III Secretion-Associated ATPase From Shigella flexneri” (Frontiers in Microbiology, 2018).
Like-named read-outs stand apart in the source and are kept apart here.

How the values were obtained:
Spa47Δ1-83 = biological target: T1, Spa47Δ1-83 (Shigella flexneri, UniProt P0A1C1); assay: Isothermal titration calorimetry (ITC) of nucleotide binding to monomeric Spa47Δ1-83; details: for Ka (affinity constant) / ΔH (enthalpy variation) / ΔS (entropy variation): ATP without Mg2+, other ligands with Mg2+
T1 construct: The cDNA encoding Spa47Δ1-83 (84–430 aa) was amplified; 6xHis (pET28a, thrombin site) (N, cleaved yes); made in house; host or cells: E. coli Rosetta (DE3)
Protocol: An isothermal titration calorimetry (ITC) assay was performed with a MicroCalTM iTC200 calorimeter (MicroCal, USA) at 25°C. Both the protein and the ATP homolog were dissolved in the same buffer (20 mM Tris-HCl, pH = 8.0, 100 mM NaCl, 5 mM MgCl2). The concentrations of Spa47Δ1-83 and the mutants were between 0.03 and 0.04 mM. The concentration of ATP analogs was between 1 and 2 mM. Titration consisted of 18 consecutive 2-μl injections of ATP analogs with a 120-s interval between injections using a stir rate of 600 rpm. The dilution heat of the ligand was measured by adding ligand to a buffer solution under these conditions, and the injection schedule was identical to that used for the protein sample. For titration of the protein with ATP, MgCl2 was omitted in the buffer. Data acquisition and analysis were performed using Origin software. A single binding site model was used for nonlinear curve fitting. ITC experiments were repeated twice for each ligand.

[1] = biological target: subunit B of the A1A0 ATP synthase; set-up: method as in Kumar et al., 2009; details: ATP binding; ref Kumar et al., 2009; cited from earlier work
p97 = biological target: p97; set-up: method as in Tang et al., 2010; details: ATP binding; ref Tang et al., 2010; cited from earlier work
muscle creatine kinase = biological target: muscle creatine kinase; set-up: method as in Forstner et al., 1999; details: ATP binding; ref Forstner et al., 1999; cited from earlier work
[2] = ITC, 25°C, 20 mM Tris-HCl pH 8.0, 100 mM NaCl, 5 mM MgCl2 (MgCl2 omitted for ATP), single binding site model, Kd calculated as 1/Ka, read-out: Kd (apparent dissociation constant)

SMILES | Kd (Spa47Δ1-83; ITC, 25°C, 20 mM Tris-HCl pH 8.0, 100 mM NaCl, 5 mM MgCl2 (MgCl2 omitted for ATP), single binding site model, Kd calculated as 1/Ka, listed as AMP-PNP, read-out: Kd (apparent dissociation constant)) | Kd (Spa47Δ1-83; [2]) | Ka (affinity constant) (Spa47Δ1-83; ITC, 25°C) | ΔH (enthalpy variation) (Spa47Δ1-83; ITC, 25°C) | ΔS (entropy variation) (Spa47Δ1-83; ITC, 25°C) | fold lower binding affinity than ATP and ATPγS (Spa47Δ1-83; ITC, relative to the affinity measured for ATP and ATPγS) | Kd (Spa47Δ1-83) | Kd [1] | Kd (p97) | Kd (muscle creatine kinase)
Nc1ncnc2c1ncn2[C@@H]1O[C@H](COP(=O)(O)OP(=O)(O)NP(=O)(O)O)[C@@H](O)[C@H]1O [AMPPNP] | 322 ± 12.6 µM | 322 ± 12.6 µM | 0.031±0.001 10^5. M^-1 | -7.21 ± 0.11 kcal/mol | -8.20 cal/mole/deg | ~ 15 fold | – | – | – | –
Nc1ncnc2c1ncn2[C@@H]1O[C@H](COP(=O)(O)OP(=O)(O)O)[C@@H](O)[C@H]1O [ADP] | – | 150 ± 6.03 µM | 0.067±0.003 10^5. M^-1 | -17.24 ± 3.82 kcal/mol | -40.30 cal/mole/deg | – | – | – | – | –
Nc1ncnc2c1ncn2[C@@H]1O[C@H](CO[P@](=O)(O)O[P@](=O)(O)O[P@@](=O)(O)S)[C@@H](O)[C@H]1O [ATPγS] | – | – | 0.472±0.017 10^5. M^-1 | -8.16 ± 0.16 kcal/mol | -6.00 cal/mole/deg | – | 21.2 ± 0.8 µM | – | – | –
Nc1ncnc2c1ncn2[C@@H]1O[C@H](COP(=O)(O)OP(=O)(O)OP(=O)(O)O)[C@@H](O)[C@H]1O [ATP] | – | 23.1 ± 3.44 µM | 0.443±0.070 10^5. M^-1 | -4.99 ± 0.53 kcal/mol | 4.50 cal/mole/deg | – | – | 22 µM | 0.89 µM | 4 to 16 µM
